Test results published in publication PMC12102759 (Protein Science : A Publication of the Protein Society, 2025).
Like-named read-outs stand apart in the source and are kept apart here.

System: PABPC1 PABC
Format: binding, human
Conditions: DMS-BM library, bait PABPC1 PABC, row aa = residue at this position; for DMS-derived PSSM value, position S2 / DMS-derived PSSM value, position S15 / DMS-derived PSSM value, position S13: S = wild type
[1] = prey ATXN2, peptide KSTLNPNAKEFNPRSF, N = wild type
[2] = prey ATXN2, peptide KSTLNPNAKEFNPRSF
[3] = prey ATXN2, peptide TLNPNAKEFNPRSFSQ, N = wild type
[4] = prey ATXN2, TLNPNAKEFNPRSF(averaged) over the two overlapping peptides, N = wild type
[5] = prey ATXN2, peptide KSTLNPNAKEFNPRSF, P = wild type
[6] = prey ATXN2, peptide TLNPNAKEFNPRSFSQ, T = wild type
[7] = prey ATXN2, peptide KSTLNPNAKEFNPRSF, F = wild type
[8] = prey ATXN2, TLNPNAKEFNPRSF(averaged) over the two overlapping peptides, A = wild type
[9] = prey ATXN2, peptide TLNPNAKEFNPRSFSQ, A = wild type
[10] = prey ATXN2, TLNPNAKEFNPRSF(averaged) over the two overlapping peptides, T = wild type
[11] = prey ATXN2, peptide TLNPNAKEFNPRSFSQ, P = wild type
[12] = prey ATXN2, peptide TLNPNAKEFNPRSFSQ, L = wild type
[13] = prey ATXN2, peptide TLNPNAKEFNPRSFSQ, K = wild type
[14] = prey ATXN2, peptide TLNPNAKEFNPRSFSQ, F = wild type
[15] = prey ATXN2, peptide TLNPNAKEFNPRSFSQ
[16] = prey ATXN2, peptide TLNPNAKEFNPRSFSQ, E = wild type
[17] = prey ATXN2, TLNPNAKEFNPRSF(averaged) over the two overlapping peptides, E = wild type
[18] = prey ATXN2, TLNPNAKEFNPRSF(averaged) over the two overlapping peptides, P = wild type

KSTLNPNAKEFNPRSF K9F (KSTLNPNAFEFNPRSF)
DMS-derived PSSM value, position K9 (prey ATXN2, peptide KSTLNPNAKEFNPRSF, K = wild type): 0.02411

KSTLNPNAKEFNPRSF A8Q (KSTLNPNQKEFNPRSF)
DMS-derived PSSM value, position A8 (prey ATXN2, peptide KSTLNPNAKEFNPRSF, A = wild type): 0

KSTLNPNAKEFNPRSF N5L (KSTLLPNAKEFNPRSF)
DMS-derived PSSM value, position N5 [1]: 0

KSTLNPNAKEFNPRSF S2P (KPTLNPNAKEFNPRSF)
DMS-derived PSSM value, position S2 [2]: 0.1938

KSTLNPNAKEFNPRSF N5D (KSTLDPNAKEFNPRSF)
DMS-derived PSSM value, position N5 [1]: 0

TLNPNAKEFNPRSFSQ N5Q (TLNPQAKEFNPRSFSQ)
DMS-derived PSSM value, position N5 [3]: 0.004159

TLNPNAKEFNPRSFSQ N3Y (TLYPNAKEFNPRSFSQ)
DMS-derived PSSM value, position N3 [3]: 0

TLNPNAKEFNPRSFSQ N10V (TLNPNAKEFVPRSFSQ)
DMS-derived PSSM value, position N10 [3]: 0.0007642

TLNPNAKEFNPRSF(averaged) N5W (TLNPWAKEFNPRSF)
DMS-derived PSSM value (averaged), position N5 [4]: 0.0006294

KSTLNPNAKEFNPRSF P6L (KSTLNLNAKEFNPRSF)
DMS-derived PSSM value, position P6 [5]: 0.1435

TLNPNAKEFNPRSFSQ T1D (DLNPNAKEFNPRSFSQ)
DMS-derived PSSM value, position T1 [6]: 0.106

KSTLNPNAKEFNPRSF F11G (KSTLNPNAKEGNPRSF)
DMS-derived PSSM value, position F11 [7]: 0

KSTLNPNAKEFNPRSF S2L (KLTLNPNAKEFNPRSF)
DMS-derived PSSM value, position S2 [2]: 0.006151

KSTLNPNAKEFNPRSF F11P (KSTLNPNAKEPNPRSF)
DMS-derived PSSM value, position F11 [7]: 0

TLNPNAKEFNPRSF(averaged) A6L (TLNPNLKEFNPRSF)
DMS-derived PSSM value (averaged), position A6 [8]: 0

TLNPNAKEFNPRSF(averaged) F9R (TLNPNAKERNPRSF)
DMS-derived PSSM value (averaged), position F9 (prey ATXN2, TLNPNAKEFNPRSF(averaged) over the two overlapping peptides, F = wild type): 0

TLNPNAKEFNPRSFSQ N10F (TLNPNAKEFFPRSFSQ)
DMS-derived PSSM value, position N10 [3]: 0.002727

KSTLNPNAKEFNPRSF F11R (KSTLNPNAKERNPRSF)
DMS-derived PSSM value, position F11 [7]: 0

TLNPNAKEFNPRSFSQ A6H (TLNPNHKEFNPRSFSQ)
DMS-derived PSSM value, position A6 [9]: 0

TLNPNAKEFNPRSF(averaged) T1A (ALNPNAKEFNPRSF)
DMS-derived PSSM value (averaged), position T1 [10]: 0.03742

TLNPNAKEFNPRSFSQ P11R (TLNPNAKEFNRRSFSQ)
DMS-derived PSSM value, position P11 [11]: 0.006355

TLNPNAKEFNPRSF(averaged) A6R (TLNPNRKEFNPRSF)
DMS-derived PSSM value (averaged), position A6 [8]: 0

TLNPNAKEFNPRSFSQ P4E (TLNENAKEFNPRSFSQ)
DMS-derived PSSM value, position P4 [11]: 0.001688

KSTLNPNAKEFNPRSF F11V (KSTLNPNAKEVNPRSF)
DMS-derived PSSM value, position F11 [7]: 0

TLNPNAKEFNPRSFSQ N5E (TLNPEAKEFNPRSFSQ)
DMS-derived PSSM value, position N5 [3]: 3.906e-5

TLNPNAKEFNPRSFSQ A6Q (TLNPNQKEFNPRSFSQ)
DMS-derived PSSM value, position A6 [9]: 0

TLNPNAKEFNPRSF(averaged) T1M (MLNPNAKEFNPRSF)
DMS-derived PSSM value (averaged), position T1 [10]: 0.04356

KSTLNPNAKEFNPRSF S15E (KSTLNPNAKEFNPREF)
DMS-derived PSSM value, position S15 [2]: 0.02092

TLNPNAKEFNPRSFSQ P11D (TLNPNAKEFNDRSFSQ)
DMS-derived PSSM value, position P11 [11]: 0.005508

TLNPNAKEFNPRSFSQ L2N (TNNPNAKEFNPRSFSQ)
DMS-derived PSSM value, position L2 [12]: 0

TLNPNAKEFNPRSFSQ A6Y (TLNPNYKEFNPRSFSQ)
DMS-derived PSSM value, position A6 [9]: 0

TLNPNAKEFNPRSFSQ K7V (TLNPNAVEFNPRSFSQ)
DMS-derived PSSM value, position K7 [13]: 0.007815

KSTLNPNAKEFNPRSF T3E (KSELNPNAKEFNPRSF)
DMS-derived PSSM value, position T3 (prey ATXN2, peptide KSTLNPNAKEFNPRSF, T = wild type): 0.2365

KSTLNPNAKEFNPRSF S15F (KSTLNPNAKEFNPRFF)
DMS-derived PSSM value, position S15 [2]: 0.0234

KSTLNPNAKEFNPRSF P13L (KSTLNPNAKEFNLRSF)
DMS-derived PSSM value, position P13 [5]: 0.006424

KSTLNPNAKEFNPRSF E10F (KSTLNPNAKFFNPRSF)
DMS-derived PSSM value, position E10 (prey ATXN2, peptide KSTLNPNAKEFNPRSF, E = wild type): 0

TLNPNAKEFNPRSFSQ P4T (TLNTNAKEFNPRSFSQ)
DMS-derived PSSM value, position P4 [11]: 0.02934

TLNPNAKEFNPRSFSQ K7M (TLNPNAMEFNPRSFSQ)
DMS-derived PSSM value, position K7 [13]: 0.0004181

TLNPNAKEFNPRSFSQ A6R (TLNPNRKEFNPRSFSQ)
DMS-derived PSSM value, position A6 [9]: 0

TLNPNAKEFNPRSF(averaged) T1I (ILNPNAKEFNPRSF)
DMS-derived PSSM value (averaged), position T1 [10]: 0.08555

KSTLNPNAKEFNPRSF S2K (KKTLNPNAKEFNPRSF)
DMS-derived PSSM value, position S2 [2]: 0

TLNPNAKEFNPRSFSQ F14M (TLNPNAKEFNPRSMSQ)
DMS-derived PSSM value, position F14 [14]: 0.2558

KSTLNPNAKEFNPRSF S15P (KSTLNPNAKEFNPRPF)
DMS-derived PSSM value, position S15 [2]: 0.04178

TLNPNAKEFNPRSFSQ S15A (TLNPNAKEFNPRSFAQ)
DMS-derived PSSM value, position S15 [15]: 0.02541

TLNPNAKEFNPRSFSQ K7I (TLNPNAIEFNPRSFSQ)
DMS-derived PSSM value, position K7 [13]: 0.003703

KSTLNPNAKEFNPRSF L4F (KSTFNPNAKEFNPRSF)
DMS-derived PSSM value, position L4 (prey ATXN2, peptide KSTLNPNAKEFNPRSF, L = wild type): 0

TLNPNAKEFNPRSFSQ E8A (TLNPNAKAFNPRSFSQ)
DMS-derived PSSM value, position E8 [16]: 0.02248

TLNPNAKEFNPRSFSQ K7N (TLNPNANEFNPRSFSQ)
DMS-derived PSSM value, position K7 [13]: 0.08014

TLNPNAKEFNPRSF(averaged) E8S (TLNPNAKSFNPRSF)
DMS-derived PSSM value (averaged), position E8 [17]: 0.04903

TLNPNAKEFNPRSFSQ F9W (TLNPNAKEWNPRSFSQ)
DMS-derived PSSM value, position F9 [14]: 0.6528

TLNPNAKEFNPRSFSQ E8D (TLNPNAKDFNPRSFSQ)
DMS-derived PSSM value, position E8 [16]: 0

KSTLNPNAKEFNPRSF F11N (KSTLNPNAKENNPRSF)
DMS-derived PSSM value, position F11 [7]: 0.09626

TLNPNAKEFNPRSFSQ P4S (TLNSNAKEFNPRSFSQ)
DMS-derived PSSM value, position P4 [11]: 0.01574

TLNPNAKEFNPRSFSQ S15E (TLNPNAKEFNPRSFEQ)
DMS-derived PSSM value, position S15 [15]: 0.1009

TLNPNAKEFNPRSF(averaged) N3D (TLDPNAKEFNPRSF)
DMS-derived PSSM value (averaged), position N3 [4]: 0.0826

TLNPNAKEFNPRSFSQ N5S (TLNPSAKEFNPRSFSQ)
DMS-derived PSSM value, position N5 [3]: 0.00244

TLNPNAKEFNPRSFSQ E8W (TLNPNAKWFNPRSFSQ)
DMS-derived PSSM value, position E8 [16]: 0

TLNPNAKEFNPRSFSQ S13V (TLNPNAKEFNPRVFSQ)
DMS-derived PSSM value, position S13 [15]: 0.02255

TLNPNAKEFNPRSF(averaged) P11S (TLNPNAKEFNSRSF)
DMS-derived PSSM value (averaged), position P11 [18]: 0.02695

TLNPNAKEFNPRSF(averaged) E8G (TLNPNAKGFNPRSF)
DMS-derived PSSM value (averaged), position E8 [17]: 0

TLNPNAKEFNPRSF(averaged) E8Q (TLNPNAKQFNPRSF)
DMS-derived PSSM value (averaged), position E8 [17]: 0.02477

TLNPNAKEFNPRSFSQ L2P (TPNPNAKEFNPRSFSQ)
DMS-derived PSSM value, position L2 [12]: 0.03756

KSTLNPNAKEFNPRSF S2W (KWTLNPNAKEFNPRSF)
DMS-derived PSSM value, position S2 [2]: 0.0005784

KSTLNPNAKEFNPRSF F16L (KSTLNPNAKEFNPRSL)
DMS-derived PSSM value, position F16 [7]: 0.2967

TLNPNAKEFNPRSFSQ F9K (TLNPNAKEKNPRSFSQ)
DMS-derived PSSM value, position F9 [14]: 0

TLNPNAKEFNPRSFSQ N5W (TLNPWAKEFNPRSFSQ)
DMS-derived PSSM value, position N5 [3]: 0.001259

KSTLNPNAKEFNPRSF F11W (KSTLNPNAKEWNPRSF)
DMS-derived PSSM value, position F11 [7]: 0.203

KSTLNPNAKEFNPRSF F16E (KSTLNPNAKEFNPRSE)
DMS-derived PSSM value, position F16 [7]: 0.01536

TLNPNAKEFNPRSFSQ K7S (TLNPNASEFNPRSFSQ)
DMS-derived PSSM value, position K7 [13]: 0.01353

TLNPNAKEFNPRSF(averaged) P4W (TLNWNAKEFNPRSF)
DMS-derived PSSM value (averaged), position P4 [18]: 0

TLNPNAKEFNPRSFSQ T1I (ILNPNAKEFNPRSFSQ)
DMS-derived PSSM value, position T1 [6]: 0.00436

TLNPNAKEFNPRSFSQ T1G (GLNPNAKEFNPRSFSQ)
DMS-derived PSSM value, position T1 [6]: 0.1015

TLNPNAKEFNPRSFSQ S13T (TLNPNAKEFNPRTFSQ)
DMS-derived PSSM value, position S13 [15]: 0.105
